From US20240391958A1, “KEANUMYCINS AND USES THEREOF IN MEDICINE AND PLANT PROTECTION” (Leibniz-Institut für Naturstoff-Forschung und …, priority 2023, published 2024)
≈ marks a conversion by molar mass, not a printed value. Read-outs that look alike come from different tables or passages of the source. One block for each compound: values may come before it. Where a SMILES comes first, the peptide text is derived from it. Bridges are numbered along the chain shown (N, C = ends). [ ]: non-standard residue; d: D form. The star is where a group is joined. Decanoyl(3R-OH) = CCCCCCC[C@@H](O)CC(=O)*; d(aThr) = C[C@@H](O)[C@@H](N)C(=O)O; Dab = NCC[C@H](N)C(=O)O; Dhb = C/C=C(\N)C(=O)O

Key:
[1] = system: Candida tropicalis 2021-360; test: Broth dilution method (EUCAST); type: cell-based; conditions: 2021360; Candida tropicalis 2021-360, EUCAST E.DEF 9.3.2; read-out: Result of the broth dilution method assay (MIC)
Method: (§1) The activity assay was performed using the broth dilution method according to the EUCAST DEFINITIVE DOCUMENT E.DEF 9.3.2. B. cinerea and A. solani were incubated according to the Methods for dilution antimicrobial susceptibility tests for bacteria that grow aerobically by the NCCLS. Keanumycin A was dissolved in DMSO.

[2] = system: Scedosporium apiospermum 2016-079; test: Broth dilution method (EUCAST); type: cell-based; conditions: 2016079; Scedosporium apiospermum 2016-079, EUCAST E.DEF 9.3.2; read-out: Result of the broth dilution method assay (MIC)
Method: as §1

[3] = system: Aspergillus fumigatus ATCC 204305; test: Broth dilution method (EUCAST); type: cell-based; conditions: ATCC204305; Aspergillus fumigatus ATCC 204305, EUCAST E.DEF 9.3.2; read-out: Result of the broth dilution method assay (MIC)
Method: as §1

[4] = system: Rhizopus arrhizus 2021-366; test: Broth dilution method (EUCAST); type: cell-based; conditions: 2021366; Rhizopus arrhizus 2021-366, EUCAST E.DEF 9.3.2; read-out: Result of the broth dilution method assay (MIC)
Method: as §1

[5] = system: Candida parapsilosis ATCC 22019; test: Broth dilution method (EUCAST); type: cell-based; conditions: Lodderomyces parapsilosis, ATCC22019; Candida parapsilosis ATCC 22019, EUCAST E.DEF 9.3.2; read-out: Result of the broth dilution method assay (MIC)
Method: as §1

[6] = system: Fusarium proliferatum 2021-361; test: Broth dilution method (EUCAST); type: cell-based; conditions: 2021361; Fusarium proliferatum 2021-361, EUCAST E.DEF 9.3.2; read-out: Result of the broth dilution method assay (MIC)
Method: as §1

[7] = system: Candida auris 2021-353; test: Broth dilution method (EUCAST); type: cell-based; conditions: Candidozyma auris, 2021353; Candida auris 2021-353, EUCAST E.DEF 9.3.2; read-out: Result of the broth dilution method assay (MIC)
Method: as §1

[8] = system: Candida glabrata 2021-359; test: Broth dilution method (EUCAST); type: cell-based; conditions: Nakaseomyces glabratus, 2021359; Candida glabrata 2021-359, EUCAST E.DEF 9.3.2; read-out: Result of the broth dilution method assay (MIC)
Method: as §1

[9] = system: Staphylococcus aureus SG 511; test: Disk diffusion test; type: cell-based; conditions: 5 μg/mL in water, 50 μL per 9 mm hole, 24 h 37 °C
Method: (§2) A qualitative screen of different microorganisms was performed using a disk diffusion test. Each microorganism was plated on Mueller Hinton agar plates and 9 mm holes were punched out. The respective compounds were dissolved in the indicated solvent to yield solutions of specified concentrations. 50 μL of the respective solutions were placed in each hole. The plates were incubated for 24 h at 37° C. After incubation, the size of inhibition zones was determined.

[10] = system: Staphylococcus aureus (MRSA) 134/94; test: Disk diffusion test; type: cell-based; conditions: 5 μg/mL in water, 50 μL per 9 mm hole, 24 h 37 °C
Method: as §2

[11] = system: Enterococcus faecalis (VRE) 1528; test: Disk diffusion test; type: cell-based; conditions: 5 μg/mL in water, 50 μL per 9 mm hole, 24 h 37 °C
Method: as §2

[12] = system: Mycobacterium vaccae; test: Disk diffusion test; type: cell-based; conditions: 5 μg/mL in water, 50 μL per 9 mm hole, 24 h 37 °C
Method: as §2

[13] = system: Bacillus subtilis; test: Disk diffusion test; type: cell-based; conditions: 5 μg/mL in water, 50 μL per 9 mm hole, 24 h 37 °C
Method: as §2

[14] = system: Escherichia coli; test: Disk diffusion test; type: cell-based; conditions: 5 μg/mL in water, 50 μL per 9 mm hole, 24 h 37 °C
Method: as §2

[15] = system: Pseudomonas aeruginosa SG 137; test: Disk diffusion test; type: cell-based; conditions: 5 μg/mL in water, 50 μL per 9 mm hole, 24 h 37 °C
Method: as §2

[16] = system: Pseudomonas aeruginosa K799/61; test: Disk diffusion test; type: cell-based; conditions: 5 μg/mL in water, 50 μL per 9 mm hole, 24 h 37 °C
Method: as §2

[17] = system: Sporobolomyces salmonicolor; test: Disk diffusion test; type: cell-based; conditions: 10 μg/mL in DMSO/MeOH, 50 μL per 9 mm hole, 24 h 37 °C; methanol alone 10 mm
Method: as §2

[18] = system: Candida albicans; test: Disk diffusion test; type: cell-based; conditions: 10 μg/mL in DMSO/MeOH, 50 μL per 9 mm hole, 24 h 37 °C
Method: as §2

[19] = system: Penicillium notatum; test: Disk diffusion test; type: cell-based; conditions: 10 μg/mL in DMSO/MeOH, 50 μL per 9 mm hole, 24 h 37 °C; methanol alone 10 mm
Method: as §2

[20] = system: Candida strains; conditions: against Candida strains; cited from earlier work
[21] = system: C. albicans; test: Membrane permeabilization assay using SYTOX Green; type: cell-based, Candida albicans; conditions: 4 μg mL-1 in 1% DMSO
Excerpt: Only isolated cells are stained, which can be explained by the fact that the dye can also be used to distinguish dead from live cells. Scale bar=100 μm.
To finally examine if keanumycin A is a membrane-active compound, the inventors performed a membrane permeabilization assay using SYTOX Green (FIG. 6). As a cell-impermeant dye, SYTOX Green enters the cell upon loss of membrane integrity and binds to DNA, which results in fluorescently stained cells. […] Thus, the keanumycins are membrane-active compounds that disturb the structure of the fungal […].

[22] = Stability of isolated keanumycin C; type: physicochemical; conditions: in solution or concentrated to dryness
Excerpt: The inventors isolated keanumycin A (m/z 583.7892 [M+2H]2+ consistent with the molecular formula C49H84ClN11O19) and impure keanumycin B (m/z 575.7900 [M+2H]2+; C49H84ClN11O18), which could not be separated from an unknown metabolite (FIG. 1A). The inventors were also able to isolate keanumycin C (m/z 591.7866 [M+2H]2+; C49H84ClN11O20). […] Therefore, a detailed NMR analysis was only performed on keanumycin A. Important correlations in the ^1H, ^1H-correlation spectroscopy (COSY) experiment disclosed the presence of a 3,4-dihydroxylated linear fatty acid, which is a rare motif in NRLPs and only described for two other members of the syringomycin family (FIG. 2A). […] Saponification of keanumycin A under mild conditions led to the expected dechlorinated and linear lipopeptide 1, whose planar structure was confirmed by further HRMS2 experiments.

[23] = system: Botrytis cinerea SF011406; test: Broth dilution method (NCCLS); type: cell-based
Method: as §1

- MIC [1]: 1 µg/mL (≈ 2.86 µM)
- MIC [2]: 1 µg/mL (≈ 2.86 µM)
- MIC [3]: 0.5 µg/mL (≈ 1.43 µM)
- MIC [4]: > 8 µg/mL
- MIC [5]: 0.03 µg/mL (≈ 0.0859 µM)
- MIC [6]: 8 µg/mL (≈ 22.9 µM)
- MIC [7]: 1 µg/mL (≈ 2.86 µM)
- MIC [8]: 0.06 µg/mL (≈ 0.172 µM)
Compound: C[C@@H](c1ncncc1F)[C@](O)(Cn1cncn1)c1ccc(F)cc1F [Voriconazol, reference compound]

- MIC [1]: 64 µg/mL (≈ 209 µM)
- MIC [5]: 2 µg/mL (≈ 6.53 µM)
- MIC [7]: < 64 µg/mL
- MIC [8]: 2 µg/mL (≈ 6.53 µM)
Compound: OC(Cn1cncn1)(Cn1cncn1)c1ccc(F)cc1F [Fluconazol, reference compound]

Compound: O=C(O)c1cn(C2CC2)c2cc(N3CCNCC3)c(F)cc2c1=O [Ciprofloxacin, reference compound]
- Inhibition area diameter [9]: 17 mm
- Inhibition area diameter [10]: 0 mm
- Inhibition area diameter [11]: 16 mm
- Inhibition area diameter [12]: 22 mm
- Inhibition area diameter [13]: 29 mm
- Inhibition area diameter [14]: 26 mm
- Inhibition area diameter [15]: 26 mm
- Inhibition area diameter [16]: 28 mm

Compound: C[C@@H]1[C@H](O)[C@@H](C)/C=C/C=C/C=C/C=C/C=C/C=C/C=C/[C@H](O[C@@H]2O[C@H](C)[C@@H](O)[C@H](N)[C@@H]2O)C[C@@H]2O[C@](O)(C[C@@H](O)C[C@@H](O)[C@H](O)CC[C@@H](O)C[C@@H](O)CC(=O)O[C@H]1C)C[C@H](O)[C@H]2C(=O)O [Amphotericin B, reference compound]
- Inhibition area diameter [17]: 18 mm
- Inhibition area diameter [18]: 21 mm
- Inhibition area diameter [19]: 18 mm

Compound: hassallidin D
- IC50 [20]: 290 to 1000 nM

Compound: tunicamycin [reference compound]
- membrane permeabilization (SYTOX Green staining) [21]: membrane integrity of C. albicans is not disturbed
- membrane permeabilization (SYTOX Green staining) ([21]; listed as Tunicamycin): did not cause a loss of membrane integrity

Compound: keanumycin C
- stability [22]: slowly degrades in solution or when concentrated to dryness

Compound: C/C=C(\NC(=O)[C@@H](CC(C)C)NC(=O)[C@@H](C)NC(=O)[C@H](NC(=O)[C@@H](C)NC(=O)[C@@H](CO)NC(=O)[C@H](NC(=O)[C@H](C)NC(=O)[C@@H](C)NC(=O)[C@@H](C)NC(=O)[C@H](NC(=O)[C@H](NC(=O)[C@H]1CCCN1C(=O)/C(=C/C)NC(=O)C[C@H](O)CCCCCCC)[C@H](C)CC)C(C)C)C(C)C)C(C)C)C(=O)N[C@H]1C(=O)N[C@@H](C)C(=O)N[C@@H](CCN)C(=O)N[C@H](CO)C(=O)N[C@@H](Cc2ccccc2)C(=O)O[C@@H]1C [jessenipeptin, reference compound] ({Decanoyl(3R-OH)}-[Dhb][dP][dI][dV][dA][dA]A[dV][dS][dA][dV][dA][dL][Dhb][d(aThr)]A[Dab][dS]F; ester 15-C)
- MIC ([23]; B. cinerea): 10 µg/mL
- MIC ([23]; Botrytis cinerea, NCCLS, 22 °C, read-out: MIC): 5.2 µM

- MIC [1]: 0.125 µg/mL (≈ 0.178 µM)
- MIC [2]: > 8 µg/mL
- MIC [3]: 0.125 µg/mL (≈ 0.178 µM)
- MIC [4]: 4 µg/mL (≈ 5.71 µM)
- MIC [5]: 0.06 µg/mL (≈ 0.0856 µM)
- MIC [6]: > 8 µg/mL
- MIC [7]: 0.06 µg/mL (≈ 0.0856 µM)
- MIC [8]: 0.25 µg/mL (≈ 0.357 µM)
Compound: CC[C@@H]([C@H](C)O)n1ncn(-c2ccc(N3CCN(c4ccc(OC[C@@H]5CO[C@@](Cn6cncn6)(c6ccc(F)cc6F)C5)cc4)CC3)cc2)c1=O [Posaconazol, reference compound]
